Reference: paper PMC9189845, “Structure–Activity Relationships of 8-Hydroxyquinoline-Derived Mannich Bases with Tertiary Amines Targeting Multidrug-Resistant Cancer” (Journal of Medicinal Chemistry, 2022)
Structures can show the parent of a compound that is named as a salt. Where two headings read alike, the source gives them in different places.

Experiments:
[1] = system: MES-SA cells; assay: PrestoBlue viability assay, MES-SA cells; details: for pIC50 value MES-SA: MES-SA cells, without TQ
[2] = system: MES-SA/Dx5 cells; assay: PrestoBlue viability assay, MES-SA/Dx5 cells (MDR, P-gp positive); details: for pIC50 value MES-SA/Dx5: MES-SA/Dx5 cells, without TQ; for SR (MES-SA_TQ / Dx5_TQ) (values in parentheses): presence of 1 μM TQ
[3] = read-out: IC50 / μM MES-SA, absence of TQ, 72 h incubation
[4] = read-out: IC50 / μM MES-SA/Dx5, absence of TQ, 72 h incubation
[5] = selectivity ratio MES-SA vs MES-SA/Dx5, with TQ
[6] = selectivity ratio MES-SA vs MES-SA/Dx5, without TQ
[7] = Homo sapiens, MES-SA, 72 h, read-out: IC50 / μM MES-SA, absence of TQ, 72 h incubation
[8] = Homo sapiens, MES-SA, read-out: pIC50 value MES-SA, MES-SA cells, without TQ (converted)
[9] = Homo sapiens, MES-SA/Dx5, 72 h, read-out: IC50 / μM MES-SA/Dx5, absence of TQ, 72 h incubation
[10] = Homo sapiens, MES-SA/Dx5, read-out: pIC50 value MES-SA/Dx5, MES-SA/Dx5 cells, without TQ (converted)
[11] = Homo sapiens, MES-SA, read-out: IC50 / μM MES-SA (values in parentheses), presence of 1 μM P-gp inhibitor tariquidar (TQ)
[12] = Homo sapiens, MES-SA, read-out: pIC50 value MES-SA+TQ, MES-SA cells, with TQ (converted)
[13] = Homo sapiens, MES-SA/Dx5, read-out: IC50 / μM MES-SA/Dx5 (values in parentheses), presence of 1 μM P-gp inhibitor tariquidar (TQ)
[14] = fraction of IC50 in P-gp negative vs positive cells

Compound	SR [2, 6]	IC50 [1, 7] [µM]	IC50 [1, 8] [µM]	IC50 [2, 9] [µM]	IC50 [2, 10] [µM]	also measured
2-((4-Methylpiperazin-1-yl)methyl)phenol [Compound 72]	–	–	–	–	–	IC50 [1, 3]: > 100 µM; IC50 [2, 4]: > 100 µM
Oc1c(C(c2ccccc2Br)N2CCCC2)ccc2cccnc12 (racemic) [Compound 88]	1.98	–	–	–	–	pIC50 value MES-SA [1]: 4.89; IC50 [1, 3]: 13 ± 1.35 µM; pIC50 value MES-SA/Dx5 [2]: 5.18; IC50 [2, 4]: 6.6 ± 0.21 µM; SR_TQ [2, 5]: 1.55
Oc1c(C(c2ccc(C(F)(F)F)cc2)N2CCCC2)ccc2cccnc12 (racemic) [Compound 89]	3.91	–	–	–	–	pIC50 value MES-SA [1]: 4.98; IC50 [1, 3]: 11.1 ± 3.57 µM; pIC50 value MES-SA/Dx5 [2]: 5.56; IC50 [2, 4]: 2.83 ± 0.61 µM; SR_TQ [2, 5]: 1.12
CC1CCN(C(c2ccccc2)c2ccc3cccnc3c2O)CC1 (racemic) [Compound 99]	0.76	–	–	–	–	pIC50 value MES-SA [1]: 5.06; IC50 [1, 3]: 8.77 ± 0.24 µM; pIC50 value MES-SA/Dx5 [2]: 4.95; IC50 [2, 4]: 11.5 ± 1.75 µM
CC1CCN(C(c2cccs2)c2ccc3cccnc3c2O)CC1 (racemic) [Compound 101]	0.65	–	–	–	–	pIC50 value MES-SA [1]: 4.97; IC50 [1, 3]: 10.8 ± 0.18 µM; pIC50 value MES-SA/Dx5 [2]: 4.78; IC50 [2, 4]: 16.6 ± 0.81 µM
OCCN1CCN(C(c2ccc(F)cc2)c2ccc3cccnc3c2O)CC1 (racemic) [Compound 120]	2.29	–	–	–	–	pIC50 value MES-SA [1]: 4.18; IC50 [1, 3]: 66.7 ± 4.56 µM; pIC50 value MES-SA/Dx5 [2]: 4.55; IC50 [2, 4]: 29.1 ± 7.12 µM; SR_TQ [2, 5]: 1.55
Oc1cccc2cccnc12 [Compound 12, 8-hydroxyquinoline]	–	–	–	–	–	IC50 ([1]; Homo sapiens, MES-SA, 72 h, read-out: IC50 / μM MES-SA): 5.04 ± 0.51 µM; IC50 ([1]; Homo sapiens, MES-SA, read-out: IC50 / μM MES-SA (values in parentheses)): 5.13 ± 0.05 µM; IC50 ([1]; Homo sapiens, MES-SA, read-out: pIC50 value MES-SA (converted)): 5.01 µM; IC50 ([1]; Homo sapiens, MES-SA, read-out: pIC50 value MES-SA+TQ (converted)): 5.13 µM; SR [2]: 1.66; SR_TQ [2]: 2.34; IC50 ([2]; Homo sapiens, MES-SA/Dx5, 72 h, read-out: IC50 / μM MES-SA/Dx5): 3.04 ± 0.35 µM; IC50 ([2]; Homo sapiens, MES-SA/Dx5, read-out: IC50 / μM MES-SA/Dx5 (values in parentheses)): 2.2 ± 0.18 µM; IC50 ([2]; Homo sapiens, MES-SA/Dx5, read-out: pIC50 value MES-SA/Dx5 (converted)): 3.02 µM; IC50 ([2]; Homo sapiens, MES-SA/Dx5, read-out: pIC50 value MES-SA/Dx5 + TQ (converted)): 2.19 µM
CCN(CC)Cc1ccc(O)c2ncccc12 [Compound 45]	0.9	4.5 ± 0.04	4.47	5.02 ± 0.26	5.01	–
Oc1ccc(CN2CCCC2)c2cccnc12 [Compound 46]	1.47	7.81 ± 0.5	7.76	5.31 ± 0.52	5.25	–
CCOC(=O)C1CCN(Cc2ccc(O)c3ncccc23)CC1 [Compound 48]	1.31	4.62 ± 1.03	4.47	3.54 ± 0.72	3.47	–
Oc1ccc(CN2CCc3ccccc3C2)c2cccnc12 [Compound 50]	0.99	16.7 ± 1.5	16.6	17 ± 0.49	17	–
Oc1ccc(CN2CCCCCC2)c2cccnc12 [Compound 52]	1.23	7.15 ± 0.27	7.08	5.84 ± 0.69	5.75	–
Oc1ccc(CN2CCOCC2)c2cccnc12 [Compound 54]	0.73	6.99 ± 0.31	6.92	9.58 ± 0.33	9.55	–
Oc1ccccc1CN1CCCCC1 [Compound 59]	–	> 100	–	> 100	–	–
COc1ccc(O)c(CN2CCCCC2)c1 [Compound 60]	–	> 100	–	> 100	–	–
O=Cc1ccc(O)c(CN2CCCCC2)c1 [Compound 61]	–	> 100	–	> 100	–	–
CC(=O)c1ccc(O)c(CN2CCCCC2)c1 [Compound 62]	–	> 100	–	> 100	–	–

Compound	SR [2, 6]	IC50 [1, 7] [µM]	IC50 [1, 8] [µM]	IC50 [2, 9] [µM]	IC50 [2, 10] [µM]	also measured
COc1ccc(C(C)=O)cc1CN1CCCCC1 [Compound 63]	–	> 100	–	> 100	–	–
Oc1ccc2ccncc2c1CN1CCCC(C(F)(F)F)C1 (centres unmarked) [Compound 64]	–	> 100	–	> 100	–	–
Oc1ccccc1CN1CCOCC1 [Compound 65]	–	> 100	–	> 100	–	–
Oc1ccccc1C(=S)N1CCOCC1 [Compound 66]	–	> 100	–	> 100	–	–
O=C(c1ccccc1O)N1CCOCC1 [Compound 67]	–	> 100	–	> 100	–	–
Cc1ccc(O)c(C(=O)N2CCOCC2)c1 [Compound 68]	–	> 100	380	> 100	–	–
Oc1ccc2ccccc2c1CN1CCOCC1 [Compound 69]	–	> 100	–	> 100	–	–
COc1ccc(O)c(CN2CCN(C)CC2)c1 [Compound 73]	–	> 100	–	> 100	–	–
CCN1CCN(Cc2cc(OC)ccc2O)CC1 [Compound 74]	–	> 100	–	> 100	–	–
CN1CCN(Cc2c(O)ccc3ccccc23)CC1 [Compound 75]	–	> 100	–	> 100	–	–
O=C1CCCN1Cc1cc(Cl)c2cccnc2c1O [Compound 76]	0.84	10.2 ± 0.25	10.2	12.2 ± 0.55	12	–
CC1CCCCN1Cc1cc(Cl)c2cccnc2c1O (centres unmarked) [Compound 77]	7.57	2.57 ± 0.1	2.57	0.34 ± 0.03	0.339	IC50 [1, 11]: 2.35 µM; IC50 [1, 12]: 2.34 µM; IC50 [2, 13]: 1.55 µM; SR (MES-SA_TQ / Dx5_TQ) (values in parentheses) [2, 14]: 1.51; SR_TQ [2, 5]: 1.51
CCOC(=O)C1CCCN(Cc2cc(Cl)c3cccnc3c2O)C1 (centres unmarked) [Compound 78]	–	2.52 ± 0.22	–	0.43 ± 0.01	–	IC50 [1, 11]: 2.14 µM; IC50 [2, 13]: 1.18 µM; SR (MES-SA / MES-SA/Dx5) ([2]; fraction of IC50 in P-gp negative vs positive cells, absence of TQ): 5.91; SR (MES-SA_TQ / Dx5_TQ) (values in parentheses) [2, 14]: 1.81
Oc1c(CN2CCc3ccccc3C2)cc(Cl)c2cccnc12 [Compound 80]	7.21	1.96 ± 0.22	1.95	0.27 ± 0.06	0.263	IC50 [1, 11]: 1.81 µM; IC50 [1, 12]: 1.78 µM; IC50 [2, 13]: 1.05 µM; SR (MES-SA_TQ / Dx5_TQ) (values in parentheses) [2, 14]: 1.72; SR_TQ [2, 5]: 1.72
Oc1cc2c(cc1O)CN(Cc1ccc3cccnc3c1O)CC2 [Compound 82, 2-((8-Hydroxy-quinolin-7-yl)methyl)-1,2,3,4-tetrahydroisoquinoline-6,7-diol Hydrochloride]	0.95	3.42 ± 0.28	3.39	3.61 ± 0.51	3.55	–
Oc1c(C(c2ccncc2)N2CCCC2)ccc2cccnc12 (centres unmarked) [Compound 86]	1.64	5.99 ± 0.88	5.89	3.66 ± 0.45	3.63	–
Oc1c(C(c2ccc(Cl)cc2)N2CCCC2)ccc2cccnc12 (centres unmarked) [Compound 87]	3	–	–	–	–	pIC50 value MES-SA [1]: 4.71; IC50 [1, 3]: 19.7 ± 2.25 µM; pIC50 value MES-SA/Dx5 [2]: 5.18; IC50 [2, 4]: 6.58 ± 0.53 µM; SR_TQ [2, 5]: 1.35
